Experimental data published in ChEMBL document CHEMBL4813971, “Development of novel benzofuran-based SLC-0111 analogs as selective cancer-associated carbonic anhydrase isoform IX inhibitors” (Eur J Med Chem, 2021).

Experiments:
[1] = target: T1, Carbonic anhydrase 9 (Homo sapiens, UniProt Q16790); test: Inhibition of human CA9 preincubated for 15 mins by phenol red dye based stopped flow CO2 hydration assay
[2] = target: T1, Carbonic anhydrase 9; test: Inhibition of human CA9 by stopped- flow CO2 hydration assay
[3] = test system: MDA-MB-231; test: Antiproliferative activity against human MDA-MB-231 cells incubated for 2 days by MTT assay; details: MDA-MB-231, 48 h
[4] = test system: MCF7; test: Antiproliferative activity against human MCF7 cells incubated for 2 days by MTT assay; details: MCF7, 48 h
[5] = target: Carbonic anhydrase 1 (Homo sapiens, UniProt P00915); test: Inhibition of human CA1 by stopped- flow CO2 hydration assay
Carbonic anhydrase 1, sequence (P00915 whole entry): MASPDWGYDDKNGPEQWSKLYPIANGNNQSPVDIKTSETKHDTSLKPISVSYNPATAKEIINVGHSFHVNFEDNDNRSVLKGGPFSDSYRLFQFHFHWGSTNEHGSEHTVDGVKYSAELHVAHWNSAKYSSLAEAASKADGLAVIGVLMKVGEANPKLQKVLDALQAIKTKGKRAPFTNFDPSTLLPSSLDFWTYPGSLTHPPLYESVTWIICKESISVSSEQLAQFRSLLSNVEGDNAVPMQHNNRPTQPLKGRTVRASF

Row | Ki [2] | Structure (SMILES) | further results
1 |  | Cc1ccc(S(=O)(=O)C/C(=N\Nc2ccc(S(N)(=O)=O)cc2)c2cc3cc(Br)ccc3o2)cc1 | Ki [1]: 10 nM
2 | 5.5 nM | Cc1ccc(NC(=O)Nc2cc3cc(Br)ccc3o2)cc1S(N)(=O)=O | IC50 [3]: 14200 nM; IC50 [4]: 13800 nM
3 | 12.6 nM | Cc1c(NC(=O)NNC(=O)c2ccc(S(N)(=O)=O)cc2)oc2ccccc12 | 
4 | 2300 nM | Cc1noc(NS(=O)(=O)c2ccc(NC(=O)Nc3cc4cc(Br)ccc4o3)cc2)c1C | Ki [5]: > 100000 nM
5 | 35.8 nM | NS(=O)(=O)c1ccccc1NC(=O)Nc1cc2cc(Br)ccc2o1 | 
6 | 68.2 nM | Cc1c(NC(=O)Nc2ccccc2S(N)(=O)=O)oc2ccccc12 | 
7 | 7.1 nM | NS(=O)(=O)c1ccc(NC(=O)Nc2cc3cc(Br)ccc3o2)cc1 | 
8 | 20.2 nM | NS(=O)(=O)c1cccc(NC(=O)Nc2cc3cc(Br)ccc3o2)c1 | 
9 | 1.8 nM | NS(=O)(=O)c1ccc(C(=O)NNC(=O)Nc2cc3cc(Br)ccc3o2)cc1 | 
10 | 53.9 nM | Cc1c(NC(=O)Nc2cc(Cl)c(S(N)(=O)=O)cc2S(N)(=O)=O)oc2ccccc12 | 
11 | 560 nM | Cc1noc(NS(=O)(=O)c2ccc(NC(=O)Nc3oc4ccccc4c3C)cc2)c1C | Ki [5]: > 100000 nM
12 | 650 nM | Cc1c(NC(=O)Nc2ccc(S(=O)(=O)Nc3nccs3)cc2)oc2ccccc12 | 
13 |  | C/C(=N\Nc1ccc(S(N)(=O)=O)cc1)c1cc2cc(Br)ccc2o1 | Ki [1]: 27.7 nM
14 | 22.8 nM | NS(=O)(=O)c1cc(S(N)(=O)=O)c(NC(=O)Nc2cc3cc(Br)ccc3o2)cc1Cl | 
15 | 930 nM | O=C(Nc1ccc(S(=O)(=O)Nc2nccs2)cc1)Nc1cc2cc(Br)ccc2o1 | Ki [5]: > 100000 nM
16 | 7.6 nM | Cc1c(NC(=O)NCCc2ccc(S(N)(=O)=O)cc2)oc2ccccc12 | 
17 | 25.3 nM | Cc1c(NC(=O)Nc2cccc(S(N)(=O)=O)c2)oc2ccccc12 | 
18 | 8.4 nM | Cc1ccc(NC(=O)Nc2oc3ccccc3c2C)cc1S(N)(=O)=O | IC50 [3]: 6270 nM; IC50 [4]: 6450 nM
19 | 10.4 nM | Cc1c(NC(=O)Nc2ccc(S(N)(=O)=O)cc2)oc2ccccc12 | 
20 | 34.5 nM | Cc1c(NC(=O)Oc2ccc(S(N)(=O)=O)cc2)oc2ccccc12 | 
